Experimental data taken from patent US20050074879A1, “Antisense oligonucleotide modulation of STAT3 expression” (priority 2000, published 2005).
Oligonucleotides are written 5' to 3', each unit as a sugar letter and its base; * is a phosphorothioate linkage, no mark a phosphodiester; rarer units and linkages stand in square brackets, end groups in braces. Plain capitals give the bases only. e = 2'-O-(2-methoxyethyl) (MOE); [5mC] = 5-methylcytosine; d = 2'-deoxy (DNA)

What was measured:
Assay type in all cases: cell-based
[1] = test system: Mouse STAT3 mRNA; assay: Inhibition of mouse STAT3 mRNA expression in BCL1 cells (electroporation; RNase protection/Northern blot); parameters: % mRNA INHIBITION: dose or concentration left out as unconfirmed; conditions: BCL1 cells electroporated with oligonucleotide, RNA collected 24 hours later; for % mRNA EXPRESSION: control 100%
Experimental: The B lymphoma cell line, BCL1 was obtained from ATCC (Rockville, Md.). BCL1 cells were cultured in RPMI 1640 medium.
BCL1 cells (5×10^6 cells in PBS) were transfected with oligonucleotides by electroporation, at 200V, […]. using a BTX Electro Cell Manipulator 600 (Genetronics, San Diego, Calif.). For an initial screen, BCL1 were electroporated with […] oligonucleotide and RNA collected 24 hours later. Controls without oligonucleotide were subjected to the same electroporation conditions.
Total cellular RNA was isolated using the RNEASY7 kit (Qiagen, Santa Clarita, Calif.). RNAse protection experiments were conducted using RIBOQUANT™ kits and template sets according to the manufacturer's instructions (Pharmingen, San Diego, Calif.). Northern blotting was performed as described in Chiang, M-Y. et al. (J. Biol. Chem., 1991, 266, 18162-18171), using a rat cDNA probe prepared by Xho I/Sal I restriction digest of psvsport-1 plasmid (ATCC, Rockville, Md.). mRNA levels were quantitated using a PhosphorImager (Molecular Dynamics, Sunnyvale, Calif.).

[2] = test system: Human STAT3 mRNA; assay: Human STAT3 mRNA dose response in T-24 cells, real-time PCR with PPS 2033 (Table 19); conditions: 16 hours, − decrease, + increase relative to untreated control
Experimental: The dose-response was repeated in T-24 cells and gene target quantities were measured using a different primer-probe set, called PPS 2033 herein. PPS 2033 comprises probes and primers to human STAT3 were designed to hybridize to a human STAT3 sequence, using published sequence information (incorporated herein as SEQ ID NO: XXX). For PPS 2033 the PCR primers were: forward primer: GAGGCCCGCCCAACA (SEQ ID NO: 397) reverse primer: […] (SEQ ID NO: 398) and the PCR probe was: FAM-CTGCCTAGATCGGC-TAMRA (SEQ ID NO: 399) where FAM is the fluorescent reporter dye and TAMRA is the quencher dye. Gene target quantities obtained by real time RT-PCR are normalized by quantifying total RNA using RiboGreen™ (Molecular Probes, Inc. Eugene, Oreg.). Control oligonucleotides used were ISIS 129695 (SEQ ID NO: 391), ISIS 129694 (SEQ ID NO: 392), ISIS 129690 (SEQ ID NO: 393), ISIS 129686 (SEQ ID NO: 394), ISIS 116847 (SEQ ID NO: 395) and ISIS 113529 (SEQ ID NO: 396).
(§1) T-24 cells were treated with 18.75, 37.5, 75, or 150 nM of oligonucleotide mixed with 3 ug/mL LIPOFECTIN per 100 nM oligonucleotide as described by other examples herein. Untreated cells served as controls. Following 16 hours of treatment, RNA was prepared from cells for subsequent real-time PCR analysis.
Human STAT3 mRNA expression levels were quantitated by real-time PCR using primer probe set PPS 2033 and gene target quantities were normalized using Ribogreen as described in other examples herein. A “−” or “+” designation indicates a decrease or increase of STAT 3 mRNA expression, respectively, relative to untreated control cells.

[3] = test system: Human STAT3 mRNA; assay: Inhibition of human STAT3 mRNA levels in A549 cells, 75 nM, real-time PCR (Table 13); conditions: 75 nM oligonucleotide with LIPOFECTIN, real-time PCR PPS 199, percent inhibition relative to untreated control cells, average of 2 experiments
Summary of the method: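 A549 cells at 65–75% confluency were transfected in duplicate with 75 nM oligonucleotide plus […] Lipofectin for 4–7 h at 37° C and harvested 16–24 h later. STAT3 mRNA was quantified by real-time RT-PCR with primer-probe set PPS 199 and normalized to RiboGreen total RNA. Inhibition is relative to untreated controls.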

[4] = test system: Human STAT3 mRNA; assay: Human STAT3 mRNA dose response in T-24 cells, real-time PCR with PPS 199 (Table 18); conditions: 16 hours, − decrease, + increase relative to untreated control
Text: The transitional cell bladder carcinoma cell line T-24 was obtained from the American Type Culture Collection (ATCC) (Manassas, Va.). T-24 cells were routinely cultured in complete McCoy's 5A basal media (Gibco/Life Technologies, Gaithersburg, Md.) supplemented with 10% fetal calf serum (Gibco/Life Technologies, Gaithersburg, Md.), penicillin 100 units per mL, and streptomycin 100 micrograms per mL (Gibco/Life Technologies, Gaithersburg, Md.). Cells were routinely passaged by trypsinization and dilution when they reached 90% confluence. Cells were seeded into 96-well plates (Falcon-Primaria #3872) at a density of 7000 cells/well for use in RT-PCR analysis.
Control oligonucleotides used were ISIS 129695 ([…], SEQ ID NO: 391), ISIS 129694 ([…] SEQ ID NO: 392), ISIS 129690 ([…] SEQ ID NO: 393), ISIS 129686 ([…] SEQ ID NO: 394), ISIS 116847 ([…], SEQ ID NO: 395) and ISIS 113529 ([…] SEQ ID NO: 396). These are universal scrambled control oligonucleotides.
as §1
Human STAT3 mRNA expression levels were quantitated by real-time PCR using primer probe set PPS 199 and gene target quantities were normalized using Ribogreen as described in other examples herein. A “−” or “+” designation indicates a decrease or increase of STAT 3 mRNA expression, respectively, relative to untreated control cells.

Substance | % mRNA INHIBITION [1] [%] | % mRNA EXPRESSION [1] [%] | Percent change of STAT3 expression using PPS 2033 ([2]; 18.75 nM oligonucleotide) [%] | Percent change of STAT3 expression using PPS 2033 ([2]; 37.5 nM oligonucleotide) [%] | Percent change of STAT3 expression using PPS 2033 ([2]; 75 nM oligonucleotide) [%] | Percent change of STAT3 expression using PPS 2033 ([2]; 150 nM oligonucleotide) [%] | % Inhib (inhibition of human STAT 3 mRNA levels) [3] [%] | Percent change of STAT3 expression using PPS 199 ([4]; 18.75 nM oligonucleotide) [%] | Percent change of STAT3 expression using PPS 199 ([4]; 37.5 nM oligonucleotide) [%] | Percent change of STAT3 expression using PPS 199 ([4]; 75 nM oligonucleotide) [%] | Percent change of STAT3 expression using PPS 199 ([4]; 150 nM oligonucleotide) [%]
17136 (antisense eG*eT*eT*e[5mC]*e[5mC]*dA*dC*dT*dG*dA*dG*dC*dC*dA*dT*e[5mC]*e[5mC]*eT*eG*e[5mC]) [compound 17136] | 25 | 75 |  |  |  |  |  |  |  |  | 
17137 (antisense eT*eT*e[5mC]*eA*eG*dG*dT*dA*dG*dC*dG*dT*dG*dT*dG*eT*e[5mC]*e[5mC]*eA*eG) [compound 17137] | 25 | 75 |  |  |  |  |  |  |  |  | 
17138 (antisense eA*eT*eG*eT*eG*dA*dC*dT*dC*dT*dT*dT*dG*dC*dT*eG*eG*e[5mC]*eT*eG) [compound 17138] | 63 | 37 |  |  |  |  |  |  |  |  | 
17139 (antisense e[5mC]*e[5mC]*eA*eA*eG*dA*dG*dA*dT*dT*dA*dT*dG*dA*dA*eA*e[5mC]*eA*e[5mC]*e[5mC]) [compound 17139] | 59 | 41 |  |  |  |  |  |  |  |  | 
17140 (antisense eG*e[5mC]*eT*e[5mC]*e[5mC]*dA*dA*dC*dA*dT*dC*dT*dG*dC*dT*eG*e[5mC]*eT*eT*e[5mC]) [compound 17140] | 60 | 40 |  |  |  |  |  |  |  |  | 
17141 (antisense eG*e[5mC]*eT*e[5mC]*eT*dT*dC*dA*dT*dC*dA*dG*dT*dC*dA*eG*eT*eG*eT*e[5mC]) [compound 17141] | 38 | 62 |  |  |  |  |  |  |  |  | 
17142 (antisense eA*eT*e[5mC]*eT*eG*dA*dC*dA*dC*dC*dC*dT*dG*dA*dG*eT*eA*eG*eT*eT) [compound 17142] | 30 | 70 |  |  |  |  |  |  |  |  | 
17143 (antisense eG*e[5mC]*e[5mC]*eA*eG*dA*dC*dC*dC*dA*dG*dA*dA*dG*dG*eA*eG*eA*eA*eG) [compound 17143] | 58 | 42 |  |  |  |  |  |  |  |  | 
17144 (antisense e[5mC]*eG*e[5mC]*eT*e[5mC]*dC*dT*dT*dG*dC*dT*dG*dA*dT*dG*eA*eA*eA*e[5mC]*e[5mC]) [compound 17144] | 45 | 55 |  |  |  |  |  |  |  |  | 
337270 (antisense eT*eT*eG*eG*e[5mC]*dT*dT*d[5mC]*dT*d[5mC]*dA*dA*dG*dA*dT*eA*e[5mC]*e[5mC]*eT*eG) [compound 337270] |  |  | −16 | −27 | −67 | −87 | 89 | −29 | −41 | −67 | −87
337276 (antisense e[5mC]*eT*eG*eG*eA*dG*dA*dT*dT*d[5mC]*dT*d[5mC]*dT*dA*d[5mC]*e[5mC]*eA*e[5mC]*eT*eT) [compound 337276] |  |  | −34 | −58 | −75 | −81 | 91 | −40 | −61 | −76 | −81
337284 (antisense e[5mC]*eT*e[5mC]*e[5mC]*eT*dT*dG*dA*d[5mC]*dT*d[5mC]*dT*dT*dG*dA*eG*eG*eG*eT*eT) [compound 337284] |  |  | −49 | −62 | −66 | −68 | 91 | −49 | −64 | −69 | −72
337293 (antisense e[5mC]*eA*eG*e[5mC]*e[5mC]*dA*dG*d[5mC]*dT*d[5mC]*d[5mC]*dT*d[5mC]*dG*dT*e[5mC]*e[5mC]*eG*eT*eG) [compound 337293] |  |  | −26 | −49 | −67 | −79 | 92 | −26 | −49 | −66 | −79
337303 (antisense eA*eG*e[5mC]*eT*eG*dA*dT*dA*dA*dT*dT*d[5mC]*dA*dA*d[5mC]*eT*e[5mC]*eA*eG*eG) [compound 337303] |  |  | −47 | −59 | −69 | −71 | 85 | −44 | −61 | −69 | −72
337344 (antisense eA*eT*e[5mC]*e[5mC]*eA*dT*dG*dA*dT*d[5mC]*dT*dT*dA*dT*dA*eG*e[5mC]*e[5mC]*e[5mC]*eA) [compound 337344] |  |  | −17 | −37 | −60 | −76 | 90 | −27 | −47 | −63 | −77
337384 (antisense eA*eT*eA*e[5mC]*eA*dG*dA*dA*dA*dG*dG*d[5mC]*dT*dA*dT*eG*e[5mC]*eT*eG*eA) [compound 337384] |  |  | −41 | −59 | −69 | −80 | 89 | −40 | −55 | −71 | −80
